Data: patent publication US10196360B2, “Crystal forms of bedaquiline fumarate and preparation methods therefor” (Zhejiang Hisun Pharmaceutical Co., Ltd., priority 2015, dated 2019)

What was measured:
[1] = Solubility of the crystal forms in different solvents at 50° C.; assay type: physicochemical
[2] = Particle size test (Mastersizer 2000); assay type: physicochemical; settings: non-micronized, dispersant n-hexane, fumarate
Description: The test conditions for the particle size involved in the present invention are: Mastersizer model: Mastersizer 2000; operation method: 20 mg of bedaquiline fumarate sample is taken, about 5.0 ml dispersant (n-hexane) is added, the sample is subjected to ultrasonication for 1.0 min, is allowed to stabilize for 0.5-1.0 min and then is tested.
Test Procedure: the Hydro2000SM injector was connected and the Small Volume Sample Dispersion Unit tachometer was turned on, then a suitable amount of ethanol was added to the sample cell to clean the detection channel of the instrument. A suitable amount of n-hexane (dispersant) was added to the dispersion cup, a suitable amount of n-hexane (dispersant) was inlet into the instrument to exhaust gas, the stirring rate was set to 2950 rpm, optical correction and background measurement were carried out.
The suspension was added to the sample cell until the opacity was between 15% to 20%, the suspension was allowed to stabilize for 0.5-1.0 min, the measurement time was 4 sec, the test results was saved automatically by the system.

[3] = N,N-dimethylformamide, fumarate

SMILES	solubility ([1]; Methanol, fumarate)	solubility [1, 3]	solubility ([1]; Tetrahydrofuran, fumarate)	solubility ([1]; Water)	D (0.1) [2]	D (0.5) [2]	D (0.9) [2]
COc1nc2ccc(Br)cc2cc1[C@@H](c1ccccc1)[C@@](O)(CCN(C)C)c1cccc2ccccc12.O=C(O)/C=C/C(=O)O [Crystal form II, (1R,2S)-1-(6-bromo-2-methoxyquinolin-3-yl)-4-dimethylamino-1-phenyl-2-(1-naphthyl)-2-butanol fumarate]	6000 mg/mL	2000 mg/mL	5000 mg/mL	insoluble	3.146 um	12.646 um	37.019 um
COc1nc2ccc(Br)cc2cc1[C@@H](c1ccccc1)[C@@](O)(CCN(C)C)c1cccc2ccccc12.O=C(O)/C=C/C(=O)O [Crystal form III, (1R,2S)-1-(6-bromo-2-methoxyquinolin-3-yl)-4-dimethylamino-1-phenyl-2-(1-naphthyl)-2-butanol fumarate]	6000 mg/mL	3000 mg/mL	3000 mg/mL	insoluble	10.034 um	33.721 um	68.295 um
COc1nc2ccc(Br)cc2cc1[C@@H](c1ccccc1)[C@@](O)(CCN(C)C)c1cccc2ccccc12.O=C(O)/C=C/C(=O)O [Crystal form I, (1R,2S)-1-(6-bromo-2-methoxyquinolin-3-yl)-4-dimethylamino-1-phenyl-2-(1-naphthyl)-2-butanol fumarate]	2000 mg/mL	1000 mg/mL	1000 mg/mL	insoluble	4.991 um	16.303 um	37.967 um
